ChEMBL document CHEMBL1136465, “Phenolics with PPAR-gamma ligand-binding activity obtained from licorice (Glycyrrhiza uralensis roots) and ameliorative effects of glycyrin on genetically diabetic KK-A(y) mice” (2003)

Experiments:
Format in all cases: functional
Mus musculus [1] = organism: Mus musculus; assay: Blood glucose level of the diabetic KK-Ay mice on day 0 was measured
Mus musculus [2] = organism: Mus musculus; assay: Body weight of the non-fasted diabetic KK-Ay mice on day 0 was measured
Mus musculus [3] = organism: Mus musculus; assay: Body weight of the non-fasted diabetic KK-Ay mice on day 4 was measured
Mus musculus [4] = organism: Mus musculus; assay: Body weight of the non-fasted diabetic KK-Ay mice on day 7 was measured
Mus musculus [5] = organism: Mus musculus; assay: Average food intake of the diabetic KK-Ay mice was measured from total intake amount/days/number of mice
Mus musculus [6] = organism: Mus musculus; assay: Average sample intake of the diabetic KK-Ay mice was measured as average food intake/average body weight of mice
Mus musculus [7] = organism: Mus musculus; assay: Blood glucose level of the diabetic KK-Ay mice on day 4 was measured
Mus musculus [8] = organism: Mus musculus; assay: Body weight of the fasted diabetic KK-Ay mice on day 10 was measured

COc1cc2oc(=O)c(-c3ccc(O)cc3O)cc2c(OC)c1CC=C(C)C [GLYCYRIN]
Blood glucose (Mus musculus [1]): 474 mg/dL | Body weight (Mus musculus [2]): 54.1 g | Body weight (Mus musculus [3]): 50.4 g | Body weight (Mus musculus [4]): 51.9 g | Average food intake (Mus musculus [5]): 5.34 g mouse-1 day-1 | Average sample intake (Mus musculus [6]): 102 mg/kg/day | Blood glucose (Mus musculus [7]): 278 mg/dL | Body weight (Mus musculus [8]): 48.1 g

COc1c(CC=C(C)C)c(O)cc2oc(=O)c3c4ccc(O)cc4oc3c12 [GLYCYROL]
Blood glucose (Mus musculus [1]): 427 mg/dL | Body weight (Mus musculus [2]): 52.6 g | Body weight (Mus musculus [3]): 49.1 g | Body weight (Mus musculus [4]): 50.3 g | Average food intake (Mus musculus [5]): 5.47 g mouse-1 day-1 | Average sample intake (Mus musculus [6]): 108 mg/kg/day | Blood glucose (Mus musculus [7]): 421 mg/dL | Body weight (Mus musculus [8]): 46.8 g

CCc1ccc(CCOc2ccc(CC3SC(=O)NC3=O)cc2)nc1 (centres undefined) [PIOGLITAZONE]
Blood glucose (Mus musculus [1]): 486 mg/dL | Body weight (Mus musculus [2]): 55.1 g | Body weight (Mus musculus [3]): 53.6 g | Body weight (Mus musculus [4]): 55.8 g | Average food intake (Mus musculus [5]): 6.34 g mouse-1 day-1 | Average sample intake (Mus musculus [6]): 23 mg/kg/day | Blood glucose (Mus musculus [7]): 191 mg/dL | Body weight (Mus musculus [8]): 52.5 g
